# Assays:
# [1] = Sanftner et al., Xenobiotica 2009; cited from earlier work
# [2] = system: IL-6; test: Spike protein-mediated IL-6 release from human monocyte-derived microglia (iMDM); assay type: cell-based
# [3] = biological target: PDE 10A1 (Homo sapiens, UniProt Q9Y233); details: Gibson et al., Eur J Pharmacol 2006; cited from earlier work
# [4] = system: TNFα; test: Spike protein-mediated TNFα release from human monocyte-derived microglia (iMDM); assay type: cell-based; details: for Dose dependence of TNFα reduction: ibudilast 1, 10 or 100 μM
# [5] = biological target: toll-like receptor-4 (TLR4) (Homo sapiens, UniProt O00206); details: Yang et al., Cell Death and Disease 2016; cited from earlier work
# Chain of toll-like receptor-4 (TLR4) (O00206 24-839, species assumed): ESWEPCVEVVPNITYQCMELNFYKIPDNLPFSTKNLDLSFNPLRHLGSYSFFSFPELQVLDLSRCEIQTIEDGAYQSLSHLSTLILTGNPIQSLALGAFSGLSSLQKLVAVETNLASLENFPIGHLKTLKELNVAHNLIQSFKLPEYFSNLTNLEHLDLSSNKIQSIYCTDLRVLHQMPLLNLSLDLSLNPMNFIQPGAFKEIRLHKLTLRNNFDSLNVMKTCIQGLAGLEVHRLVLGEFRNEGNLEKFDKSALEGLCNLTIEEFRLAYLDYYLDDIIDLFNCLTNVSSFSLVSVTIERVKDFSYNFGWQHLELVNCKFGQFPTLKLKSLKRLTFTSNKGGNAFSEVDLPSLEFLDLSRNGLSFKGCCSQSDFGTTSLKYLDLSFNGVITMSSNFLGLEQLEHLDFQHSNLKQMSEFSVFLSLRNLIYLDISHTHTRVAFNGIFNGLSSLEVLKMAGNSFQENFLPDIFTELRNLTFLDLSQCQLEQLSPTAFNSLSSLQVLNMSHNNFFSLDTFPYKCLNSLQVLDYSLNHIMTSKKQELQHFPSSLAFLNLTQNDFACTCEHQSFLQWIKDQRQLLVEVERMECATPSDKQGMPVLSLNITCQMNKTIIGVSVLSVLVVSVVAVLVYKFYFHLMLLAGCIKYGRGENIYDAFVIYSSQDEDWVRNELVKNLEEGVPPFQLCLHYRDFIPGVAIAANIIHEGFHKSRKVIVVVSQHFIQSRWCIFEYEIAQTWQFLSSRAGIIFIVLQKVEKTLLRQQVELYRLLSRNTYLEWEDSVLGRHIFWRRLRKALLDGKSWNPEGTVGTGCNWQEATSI
# [6] = biological target: PDE 11A1 (Homo sapiens, UniProt Q9HCR9); details: Gibson et al., Eur J Pharmacol 2006; cited from earlier work
# Chain of PDE 11A1 (Q9HCR9 445-933): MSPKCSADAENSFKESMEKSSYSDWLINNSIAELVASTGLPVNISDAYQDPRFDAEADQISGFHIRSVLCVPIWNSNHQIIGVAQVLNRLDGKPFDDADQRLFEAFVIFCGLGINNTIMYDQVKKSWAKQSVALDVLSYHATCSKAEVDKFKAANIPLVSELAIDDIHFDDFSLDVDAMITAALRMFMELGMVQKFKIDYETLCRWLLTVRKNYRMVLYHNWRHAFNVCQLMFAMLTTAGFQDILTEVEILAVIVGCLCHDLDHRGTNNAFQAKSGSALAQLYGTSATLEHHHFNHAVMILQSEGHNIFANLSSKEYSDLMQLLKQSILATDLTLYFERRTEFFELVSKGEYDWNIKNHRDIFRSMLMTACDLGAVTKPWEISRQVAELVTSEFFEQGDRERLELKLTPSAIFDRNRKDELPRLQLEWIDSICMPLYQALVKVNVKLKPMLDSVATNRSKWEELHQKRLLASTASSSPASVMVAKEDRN
# [7] = biological target: T1, macrophage inhibitory factor (MIF) (Homo sapiens, UniProt P14174); details: Cho et al., PNAS-USA 2010; cited from earlier work
# T1 sequence (P14174 2-115 limits assumed): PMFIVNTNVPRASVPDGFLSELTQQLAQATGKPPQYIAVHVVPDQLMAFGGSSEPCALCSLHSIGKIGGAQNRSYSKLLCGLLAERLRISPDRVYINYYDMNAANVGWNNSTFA
# [8] = system: leukotriene D4; details: reported; cited from earlier work
# [9] = system: MIF; test: Plasma level of MIF; details: found by the inventors
# [10] = system: PDE 4; details: Gibson et al., Eur J Pharmacol 2006; cited from earlier work
# [11] = biological target: PDE 3A (Homo sapiens, UniProt Q14432); details: Gibson et al., Eur J Pharmacol 2006; cited from earlier work
# Chain of PDE 3A (Q14432 whole entry): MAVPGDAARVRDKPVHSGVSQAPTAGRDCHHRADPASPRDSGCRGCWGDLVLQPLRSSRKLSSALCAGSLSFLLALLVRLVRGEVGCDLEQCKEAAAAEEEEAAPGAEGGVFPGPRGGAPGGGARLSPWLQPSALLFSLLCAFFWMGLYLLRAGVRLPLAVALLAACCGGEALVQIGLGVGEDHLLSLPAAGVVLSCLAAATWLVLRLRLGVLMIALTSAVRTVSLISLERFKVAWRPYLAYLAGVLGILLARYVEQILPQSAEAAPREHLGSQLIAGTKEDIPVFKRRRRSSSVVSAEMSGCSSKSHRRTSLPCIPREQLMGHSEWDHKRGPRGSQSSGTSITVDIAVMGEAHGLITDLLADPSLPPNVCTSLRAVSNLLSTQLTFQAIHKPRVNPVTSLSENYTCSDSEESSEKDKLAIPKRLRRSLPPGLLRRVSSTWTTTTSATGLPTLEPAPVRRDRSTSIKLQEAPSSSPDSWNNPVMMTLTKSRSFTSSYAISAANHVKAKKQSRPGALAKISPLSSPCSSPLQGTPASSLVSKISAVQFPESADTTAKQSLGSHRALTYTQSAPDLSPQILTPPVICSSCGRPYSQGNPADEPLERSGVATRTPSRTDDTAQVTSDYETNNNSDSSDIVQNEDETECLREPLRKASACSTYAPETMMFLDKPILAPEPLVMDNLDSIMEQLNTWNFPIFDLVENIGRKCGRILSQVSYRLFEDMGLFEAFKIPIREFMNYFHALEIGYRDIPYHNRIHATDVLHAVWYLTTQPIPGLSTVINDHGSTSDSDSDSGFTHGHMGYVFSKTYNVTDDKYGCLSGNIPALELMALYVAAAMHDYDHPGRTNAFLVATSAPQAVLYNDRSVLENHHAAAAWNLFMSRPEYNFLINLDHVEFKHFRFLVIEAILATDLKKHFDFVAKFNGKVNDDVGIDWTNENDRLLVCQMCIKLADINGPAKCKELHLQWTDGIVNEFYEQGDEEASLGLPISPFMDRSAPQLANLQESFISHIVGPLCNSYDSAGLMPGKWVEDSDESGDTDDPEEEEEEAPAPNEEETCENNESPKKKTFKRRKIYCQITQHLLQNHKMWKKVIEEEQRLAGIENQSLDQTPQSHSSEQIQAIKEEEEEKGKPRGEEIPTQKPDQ
# [12] = system: PAF; details: reported; cited from earlier work
# Chain of PDE 10A1 (Q9Y233 1-779 isoform Q9Y233-1): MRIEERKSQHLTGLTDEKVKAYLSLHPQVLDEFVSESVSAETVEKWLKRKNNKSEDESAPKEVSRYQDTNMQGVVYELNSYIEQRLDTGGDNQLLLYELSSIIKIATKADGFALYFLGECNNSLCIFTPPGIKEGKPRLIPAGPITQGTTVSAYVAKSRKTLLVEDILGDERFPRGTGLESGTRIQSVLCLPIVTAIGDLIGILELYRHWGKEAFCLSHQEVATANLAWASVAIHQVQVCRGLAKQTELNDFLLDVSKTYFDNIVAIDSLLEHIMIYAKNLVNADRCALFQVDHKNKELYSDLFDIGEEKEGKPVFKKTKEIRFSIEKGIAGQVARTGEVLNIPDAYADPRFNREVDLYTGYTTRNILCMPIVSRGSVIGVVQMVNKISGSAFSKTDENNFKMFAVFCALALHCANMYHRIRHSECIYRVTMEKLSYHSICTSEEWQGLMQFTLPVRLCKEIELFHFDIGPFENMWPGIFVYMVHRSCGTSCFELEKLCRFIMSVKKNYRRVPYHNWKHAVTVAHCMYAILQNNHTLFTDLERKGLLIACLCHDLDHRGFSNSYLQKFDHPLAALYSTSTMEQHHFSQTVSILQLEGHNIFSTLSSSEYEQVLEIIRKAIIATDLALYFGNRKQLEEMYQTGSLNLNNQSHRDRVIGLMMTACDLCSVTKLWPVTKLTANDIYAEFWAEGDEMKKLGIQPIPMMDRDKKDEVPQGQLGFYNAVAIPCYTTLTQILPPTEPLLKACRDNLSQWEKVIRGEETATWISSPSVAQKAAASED
structure (smiles),measurement,setting,value
"CC(C)C(=O)c1c(C(C)C)nn2ccccc12 [Ibudilast, 2-methyl-1-(2-(1-methylethyl)pyrazolo (1,5-a)pyridin-3-yl) 1-propanone]",CNS penetration,[1],good CNS penetration
same,(LPS+spike protein)-evoked levels of IL-6,"[2]; donors 2 and 3, FIGS. 4-5",reduced
same,IL-6 levels,"[2]; iMDM, ""low"" concentration (10 ng/mL) of LPS added with the spike proteins (all variants), ibudilast 1.0, 10, 100 μM",reduce
same,PDE 10A1 inhibition,[3],selective inhibitor
same,Dose dependence of TNFα reduction,"[4]; ""Omicron"" spike protein (1.0 μg/ml) with cross-linker, all 3 donors",Dose-dependent curves are observed
same,Dose dependence of TNFα reduction,"[4]; ""Omicron"" spike protein (5.0 μg/ml) with cross-linker, donor 3",Dose-dependent curves are observed
same,"TNFα levels elevated by ""Omicron"" spike protein","[4]; ""Omicron"" spike protein, under certain test conditions, FIGS. 6-8",reduction by ibudilast was evident under certain test conditions
same,(LPS+spike protein)-evoked levels of TNFα,"[4]; all donors, FIGS. 1-3",reduced
same,TNFα levels,"[4]; iMDM, […], ibudilast 1.0, 10, 100 μM",reduce
same,TLR4 antagonistic activity,[5],antagonistic activity
same,PDE 11A1 inhibition,[6],selective inhibitor
same,HPP tautomerase activity of MIF,[7],allosteric inhibitor
same,leukotriene D4 antagonistic activity,[8],antagonistic activities
same,plasma level of MIF,[9],lowers plasma level of MIF
same,PDE 4 inhibition,[10],selective inhibitor
same,PDE 3A inhibition,[11],selective inhibitor
same,PAF antagonistic activity,[12],antagonistic activities

# Reference: patent US12171752B2, “Methods of treating post-COVID condition(s)” (priority 2022, dated 2024)
